Data published in the NIST ThermoML archive (doi:10.1016/j.jct.2017.04.015).

Test: mn = molality of the nth substance listed, in mol/kg
Settings: 101.3 kPa, Liquid; for speed of sound: Frequency=2 MHz, Linear variable-path acoustic interferometer; for mass density: Pycnometric method

CCN(CC)CCOC(=O)c1ccc(N)cc1.Cl [2-diethylaminoethyl p-aminobenzoate hydrochloride] + O
Settings | mass density [kg/m3] | speed of sound [m/s]
288.15 K, m1 = 0.01 | 999.6 | 1467.5
288.15 K, m1 = 0.02 | 1000.1 | 1469.1
288.15 K, m1 = 0.0301 | 1000.6 | 1470.7
288.15 K, m1 = 0.04 | 1001.1 | 1472.3
288.15 K, m1 = 0.05 | 1001.6 | 1473.9
288.15 K, m1 = 0.055 | 1001.85 | 1474.7
288.15 K, m1 = 0.0599 | 1002.09 | 1475.4
288.15 K, m1 = 0.065 | 1002.34 | 1476.2
288.15 K, m1 = 0.0701 | 1002.6 | 1477
288.15 K, m1 = 0.0751 | 1002.85 | 1477.7
288.15 K, m1 = 0.0801 | 1003.1 | 1478.5
288.15 K, m1 = 0.0852 | 1003.35 | 1479.2
288.15 K, m1 = 0.0898 | 1003.58 | 1480
288.15 K, m1 = 0.0952 | 1003.85 | 1480.7
288.15 K, m1 = 0.1 | 1004.09 | 1481.4
298.15 K, m1 = 0.0098 | 997.52 | 1498.3
298.15 K, m1 = 0.0196 | 997.99 | 1499.9
298.15 K, m1 = 0.0297 | 998.49 | 1501.5
298.15 K, m1 = 0.0406 | 999.02 | 1503.2
298.15 K, m1 = 0.0492 | 999.44 | 1504.6
298.15 K, m1 = 0.0534 | 999.65 | 1505.3
298.15 K, m1 = 0.061 | 1000.02 | 1506.5
298.15 K, m1 = 0.0636 | 1000.15 | 1506.9
298.15 K, m1 = 0.0688 | 1000.4 | 1507.7
298.15 K, m1 = 0.0758 | 1000.74 | 1508.8
298.15 K, m1 = 0.0783 | 1000.86 | 1509.2
298.15 K, m1 = 0.0846 | 1001.17 | 1510.2
298.15 K, m1 = 0.09 | 1001.44 | 1511
298.15 K, m1 = 0.0951 | 1001.68 | 1511.7
298.15 K, m1 = 0.1003 | 1001.94 | 1512.5
308.15 K, m1 = 0.01 | 994.51 | 1521.4
308.15 K, m1 = 0.02 | 995 | 1523
308.15 K, m1 = 0.03 | 995.48 | 1524.6
308.15 K, m1 = 0.0401 | 995.97 | 1526.2
308.15 K, m1 = 0.0499 | 996.44 | 1527.8
308.15 K, m1 = 0.055 | 996.69 | 1528.6
308.15 K, m1 = 0.06 | 996.93 | 1529.4
308.15 K, m1 = 0.065 | 997.17 | 1530.1
308.15 K, m1 = 0.0698 | 997.4 | 1530.9
308.15 K, m1 = 0.075 | 997.65 | 1531.7
308.15 K, m1 = 0.0801 | 997.9 | 1532.5
308.15 K, m1 = 0.085 | 998.14 | 1533.2
308.15 K, m1 = 0.09 | 998.38 | 1534
308.15 K, m1 = 0.095 | 998.62 | 1534.7
308.15 K, m1 = 0.1 | 998.86 | 1535.4

[Cl-].[K+] [potassium chloride] + O
Settings | mass density, 288.15 K [kg/m3] | mass density, 298.15 K [kg/m3] | mass density, 308.15 K [kg/m3] | speed of sound, 288.15 K [m/s] | speed of sound, 298.15 K [m/s] | speed of sound, 308.15 K [m/s]
m1 = 0.06 | 1002.26 | 1000.42 | 997.25 | 1467.4 | 1498.3 | 1522.2
m1 = 0.1 | 1003.48 | 1001.79 | 998.71 | 1469.6 | 1502.5 | 1525.1
